Among the data in the OligoGym collection are target mRNA knockdown values, retold here.

Where “and” joins values, the source holds several entries; their conditions need not be identical. Equal values may be shown once. HELM strings list units from the 5' end as sugar, base in round brackets, then linkage (d deoxyribose, r ribose, m 2'-O-methyl, p phosphodiester). Strings are as the collection lists them, not checked against the first reports. ss, as = sense and antisense strand; [lna] = locked nucleic acid (LNA); [una] = unlocked nucleic acid; [s4r] = 4'-thioribose; [fl2r] = 2'-fluoro
Note: test system not given here.

For this data set the following is noted: siRNA.
On to “RNA1{r(G)p.r(A)p.r(A)p.r(G)p.r(A)p.r(G)p.r(U)p.m(U)p.r(A)p.r(A)p.r(C)p.r(C)p.r(C)p.r(G)p.r(G)p.r(G)p.r(A)p.r(C)p.r(U)p.r(T)p.r(T)}|RNA2{r(A)p.r(G)p.r(U)p.r(C)p.r(C)p.r(C)p.r(G)p.r(G)p.r(G)p.r(U)p.m(U)p.r(A)p.r(A)p.r(C)p.r(U)p.r(C)p.r(U)p.r(U)p.r(C)p.r(T)p.r(T)}$$$RNA1{StrandType:ss}|RNA2{StrandType:as}$”, for which the target mRNA knockdown stood at 51%.
In the case of “RNA1{r(C)p.r(U)p.r(U)p.r(A)p.r(C)p.r(G)p.r(C)p.r(U)p.r(G)p.r(A)p.r(G)p.r(U)p.r(A)p.r(C)p.r(U)p.r(U)p.r(C)p.r(G)p.r(A)p.r(T)p.r(T)}|RNA2{r(U)p.[lna](C)p.r(G)p.r(A)p.r(A)p.r(G)p.r(U)p.r(A)p.r(C)p.r(U)p.r(C)p.r(A)p.r(G)p.r(C)p.r(G)p.r(U)p.r(A)p.r(A)p.r(G)p.r(T)p.r(T)}$$$RNA1{StrandType:ss}|RNA2{StrandType:as}$” it was 0%.
“RNA1{m(A)p.r(A)p.m(A)p.r(G)p.m(C)p.r(G)p.m(G)p.r(U)p.m(G)p.r(G)p.m(A)p.r(U)p.m(C)p.r(A)p.m(G)p.r(C)p.m(U)p.r(C)p.m(U)p.r(T)p.r(T)}|RNA2{r(A)p.m(G)p.r(A)p.m(G)p.r(C)p.r(U)p.r(G)p.r(A)p.r(U)p.r(C)p.r(C)p.r(A)p.r(C)p.r(C)p.m(G)p.r(C)p.r(U)p.r(U)p.r(U)p.r(T)p.r(T)}$$$RNA1{StrandType:ss}|RNA2{StrandType:as}$” came in with a target mRNA knockdown of 43%.
In turn, “RNA1{r(A)p.r(G)p.r(U)p.r(U)p.r(U)p.r(C)p.[fl2r](U)p.[fl2r](A)p.r(G)p.r(G)p.r(G)p.r(C)p.r(C)p.r(G)p.r(U)p.r(G)p.r(G)p.r(C)p.r(C)p.r(T)p.r(T)}|RNA2{r(G)p.r(G)p.r(C)p.r(C)p.r(A)p.r(C)p.r(G)p.r(G)p.r(C)p.r(C)p.r(C)p.[fl2r](U)p.r(A)p.r(G)p.r(A)p.r(A)p.r(A)p.r(C)p.r(U)p.r(T)p.r(T)}$$$RNA1{StrandType:ss}|RNA2{StrandType:as}$” displayed a target mRNA knockdown of 82%.
Substance “RNA1{m(G)p.r(A)p.m(U)p.r(U)p.m(C)p.r(C)p.m(A)p.r(A)p.m(A)p.r(C)p.m(C)p.r(C)p.m(C)p.r(A)p.m(C)p.r(U)p.m(A)p.r(U)p.m(C)p.r(T)p.r(T)}|RNA2{r(G)p.r(A)p.r(U)p.r(A)p.r(G)p.r(U)p.r(G)p.r(G)p.r(G)p.r(G)p.r(U)p.r(U)p.r(U)p.r(G)p.r(G)p.r(A)p.r(A)p.r(U)p.r(C)p.r(T)p.r(T)}$$$RNA1{StrandType:ss}|RNA2{StrandType:as}$” displayed a target mRNA knockdown of 54%.
With “RNA1{r(G)p.r(U)p.r(A)p.r(U)p.r(G)p.r(A)p.r(C)p.r(C)p.r(G)p.r(A)p.r(C)p.r(U)p.r(A)p.r(C)p.r(G)p.r(C)p.r(G)p.r(U)p.r(A)p.r(T)p.r(T)}|RNA2{r(U)p.r(U)p.r(C)p.r(A)p.r(G)p.r(U)p.r(G)p.r(U)p.r(G)p.r(A)p.r(U)p.r(G)p.r(A)p.r(C)p.r(A)p.r(C)p.r(U)p.[una](U)p.r(G)p.r(T)p.r(T)}$$$RNA1{StrandType:ss}|RNA2{StrandType:as}$” the figure was 91%; with “RNA1{r(A)p.r(U)p.r(C)p.r(A)p.r(G)p.r(A)p.r(G)p.r(G)p.r(G)p.r(A)p.r(G)p.r(G)p.r(U)p.r(C)p.r(U)p.m(U)p.r(A)p.r(G)p.r(A)p.r(T)p.r(T)}|RNA2{r(U)p.r(C)p.m(U)p.r(A)p.r(A)p.r(G)p.r(A)p.r(C)p.r(C)p.r(U)p.r(C)p.r(C)p.r(C)p.r(U)p.r(C)p.r(U)p.r(G)p.r(A)p.r(U)p.r(T)p.r(T)}$$$RNA1{StrandType:ss}|RNA2{StrandType:as}$”, 69%; with “RNA1{[fl2r](C)p.[fl2r](U)p.r(A)p.[fl2r](G)p.r(A)p.r(G)p.[fl2r](G)p.r(A)p.[fl2r](U)p.[fl2r](C)p.[fl2r](U)p.[fl2r](U)p.r(G)p.r(A)p.[fl2r](A)p.r(G)p.r(A)p.[fl2r](C)p.[fl2r](C)p.r(T)p.r(T)}|RNA2{r(G)p.r(G)p.[fl2r](U)p.[fl2r](C)p.[fl2r](U)p.[fl2r](U)p.[fl2r](C)p.r(A)p.r(A)p.r(G)p.r(A)p.[fl2r](U)p.[fl2r](C)p.[fl2r](C)p.[fl2r](U)p.[fl2r](C)p.[fl2r](U)p.r(A)p.r(G)p.r(T)p.r(T)}$$$RNA1{StrandType:ss}|RNA2{StrandType:as}$”, 12%.
With “RNA1{r(C)p.r(C)p.r(U)p.r(C)p.r(C)p.r(C)p.m(C)p.r(A)p.r(U)p.r(C)p.r(C)p.r(C)p.r(C)p.r(U)p.r(U)p.r(U)p.m(U)p.r(A)p.r(A)p.r(T)p.r(T)}|RNA2{r(U)p.r(U)p.m(A)p.r(A)p.r(A)p.r(A)p.r(G)p.r(G)p.r(G)p.r(G)p.r(A)p.m(U)p.r(G)p.r(G)p.r(G)p.r(G)p.r(A)p.r(G)p.r(G)p.r(T)p.r(T)}$$$RNA1{StrandType:ss}|RNA2{StrandType:as}$” the figure was 80%; with “RNA1{[fl2r](C)p.r(G)p.[fl2r](A)p.r(A)p.[fl2r](A)p.r(G)p.[fl2r](U)p.r(G)p.[fl2r](U)p.r(A)p.[fl2r](U)p.r(C)p.[fl2r](C)p.r(G)p.[fl2r](A)p.r(A)p.[fl2r](G)p.r(A)p.[fl2r](C)p.r(T)p.r(T)}|RNA2{[fl2r](G)p.r(U)p.r(C)p.r(U)p.r(U)p.r(C)p.[fl2r](G)p.[fl2r](G)p.r(A)p.r(U)p.r(A)p.r(C)p.r(A)p.r(C)p.r(U)p.r(U)p.r(U)p.r(C)p.[fl2r](G)p.r(T)p.r(T)}$$$RNA1{StrandType:ss}|RNA2{StrandType:as}$”, 41%.
Regarding “RNA1{r(G)p.r(U)p.r(A)p.r(U)p.r(G)p.r(A)p.r(C)p.r(C)p.r(G)p.r(A)p.r(C)p.r(U)p.r(A)p.r(C)p.r(G)p.r(C)p.r(G)p.r(U)p.r(A)p.r(T)p.r(T)}|RNA2{r(U)p.r(U)p.[una](C)p.r(A)p.r(G)p.r(U)p.r(G)p.r(U)p.r(G)p.r(A)p.r(U)p.r(G)p.r(A)p.r(C)p.r(A)p.r(C)p.r(U)p.r(U)p.r(G)p.r(T)p.r(T)}$$$RNA1{StrandType:ss}|RNA2{StrandType:as}$”, the target mRNA knockdown was 45% and 50%.
In the case of “RNA1{[s4r](C)p.[s4r](G)p.[s4r](U)p.[s4r](A)p.r(C)p.r(G)p.r(C)p.r(G)p.r(G)p.r(A)p.r(A)p.r(U)p.r(A)p.r(C)p.r(U)p.[s4r](U)p.[s4r](C)p.[s4r](G)p.[s4r](A)p.r(T)p.r(T)}|RNA2{r(U)p.r(C)p.r(G)p.r(A)p.r(A)p.r(G)p.r(U)p.r(A)p.r(U)p.r(U)p.r(C)p.r(C)p.r(G)p.r(C)p.r(G)p.[s4r](U)p.[s4r](A)p.[s4r](C)p.[s4r](G)p.r(T)p.r(T)}$$$RNA1{StrandType:ss}|RNA2{StrandType:as}$”, the target mRNA knockdown was 88.1%.
As for “RNA1{r(G)p.r(A)p.r(A)p.r(A)p.r(A)p.r(C)p.r(G)p.r(C)p.r(U)p.m(U)p.r(G)p.m(U)p.r(A)p.r(A)p.r(A)p.r(G)p.r(C)p.r(C)p.r(G)p.r(T)p.r(T)}|RNA2{r(C)p.r(G)p.r(G)p.r(C)p.r(U)p.r(U)p.m(U)p.r(A)p.m(C)p.r(A)p.r(A)p.r(G)p.r(C)p.r(G)p.r(U)p.r(U)p.r(U)p.r(U)p.r(C)p.r(T)p.r(T)}$$$RNA1{StrandType:ss}|RNA2{StrandType:as}$”, the target mRNA knockdown stood at 54%.
In the case of “RNA1{m(U)p.r(A)p.r(C)p.r(C)p.r(G)p.r(A)p.r(G)p.r(A)p.r(A)p.r(U)p.r(G)p.r(A)p.r(G)p.r(C)p.r(C)p.r(U)p.r(G)p.r(A)p.r(U)p.r(T)p.r(T)}|RNA2{r(A)p.r(U)p.r(C)p.r(A)p.r(G)p.r(G)p.r(C)p.r(U)p.r(C)p.r(A)p.r(U)p.r(U)p.r(C)p.r(U)p.r(C)p.r(G)p.r(G)p.m(U)p.r(A)p.r(T)p.r(T)}$$$RNA1{StrandType:ss}|RNA2{StrandType:as}$” it was 55%; in that of “RNA1{m(C)p.r(U)p.m(C)p.r(U)p.m(G)p.r(G)p.m(C)p.r(C)p.m(U)p.m(U)p.r(U)p.r(C)p.m(U)p.r(C)p.m(U)p.r(C)p.m(U)p.r(A)p.m(G)p.r(T)p.r(T)}|RNA2{r(C)p.r(U)p.r(A)p.r(G)p.r(A)p.r(G)p.r(A)p.r(G)p.r(A)p.r(A)p.r(A)p.r(G)p.r(G)p.r(C)p.r(C)p.r(A)p.r(G)p.r(A)p.r(G)p.r(T)p.r(T)}$$$RNA1{StrandType:ss}|RNA2{StrandType:as}$”, 24%; in that of “RNA1{r(C)p.r(U)p.r(U)p.r(A)p.r(C)p.r(G)p.r(C)p.r(U)p.r(G)p.r(A)p.r(G)p.r(U)p.r(A)p.r(C)p.r(U)p.r(U)p.r(C)p.r(G)p.r(A)p.r(T)p.r(T)}|RNA2{r(U)p.r(C)p.r(G)p.r(A)p.r(A)p.r(G)p.r(U)p.[lna](A)p.r(C)p.r(U)p.r(C)p.r(A)p.r(G)p.r(C)p.r(G)p.r(U)p.r(A)p.r(A)p.r(G)p.r(T)p.r(T)}$$$RNA1{StrandType:ss}|RNA2{StrandType:as}$”, 86%.
With “RNA1{r(A)p.r(G)p.r(C)p.r(U)p.r(C)p.r(U)p.r(U)p.r(U)p.r(G)p.r(U)p.r(C)p.m(A)p.r(C)p.r(C)p.r(U)p.r(C)p.r(U)p.r(C)p.r(U)p.r(T)p.r(T)}|RNA2{r(A)p.r(G)p.r(A)p.r(G)p.r(A)p.r(G)p.r(G)p.r(U)p.r(G)p.r(A)p.m(C)p.m(A)p.r(A)p.r(A)p.r(G)p.r(A)p.r(G)p.r(C)p.r(U)p.r(T)p.r(T)}$$$RNA1{StrandType:ss}|RNA2{StrandType:as}$” the figure was 37%.
In the case of “RNA1{m(C)p.r(G)p.m(G)p.r(A)p.m(U)p.r(C)p.m(U)p.r(A)p.m(C)p.r(A)p.m(C)p.r(C)p.m(U)p.r(U)p.m(C)p.r(A)p.m(A)p.r(G)p.m(A)p.r(T)p.r(T)}|RNA2{r(U)p.r(C)p.r(U)p.r(U)p.r(G)p.r(A)p.r(A)p.r(G)p.r(G)p.r(U)p.r(G)p.r(U)p.m(A)p.r(G)p.m(A)p.r(U)p.m(C)p.r(C)p.m(G)p.r(T)p.r(T)}$$$RNA1{StrandType:ss}|RNA2{StrandType:as}$” it was 46%; in that of “RNA1{r(A)p.m(C)p.m(A)p.r(G)p.r(A)p.r(A)p.r(A)p.r(G)p.m(A)p.r(G)p.r(U)p.r(U)p.r(C)p.r(G)p.r(A)p.r(G)p.r(G)p.r(A)p.r(G)p.r(T)p.r(T)}|RNA2{r(C)p.r(U)p.r(C)p.r(C)p.r(U)p.r(C)p.r(G)p.r(A)p.r(A)p.r(C)p.r(U)p.r(C)p.r(U)p.r(U)p.r(U)p.r(C)p.m(U)p.r(G)p.r(U)p.r(T)p.r(T)}$$$RNA1{StrandType:ss}|RNA2{StrandType:as}$”, 61%.
